Test results taken from patent US7834019B2, “Substituted pyrazolo[3,4-d]pyrimidinone derivatives” (Banyu Pharmaceutical Co., Ltd., priority 2006, dated 2010).

What was measured:
Weel kinase = target: T1, Weel kinase (Homo sapiens, UniProt P30291); test: Weel kinase-inhibitory effect (33P-ATP filter assay with purified GST-tagged Weel kinase); assay type: biochemical; conditions: Poly(Lys,Tyr) substrate, 10 μM ATP, 30° C. for 30 minutes
T1 construct: made in house; host or cells: Sf9 insect cells (recombinant baculovirus)
T1 sequence (P30291 whole entry): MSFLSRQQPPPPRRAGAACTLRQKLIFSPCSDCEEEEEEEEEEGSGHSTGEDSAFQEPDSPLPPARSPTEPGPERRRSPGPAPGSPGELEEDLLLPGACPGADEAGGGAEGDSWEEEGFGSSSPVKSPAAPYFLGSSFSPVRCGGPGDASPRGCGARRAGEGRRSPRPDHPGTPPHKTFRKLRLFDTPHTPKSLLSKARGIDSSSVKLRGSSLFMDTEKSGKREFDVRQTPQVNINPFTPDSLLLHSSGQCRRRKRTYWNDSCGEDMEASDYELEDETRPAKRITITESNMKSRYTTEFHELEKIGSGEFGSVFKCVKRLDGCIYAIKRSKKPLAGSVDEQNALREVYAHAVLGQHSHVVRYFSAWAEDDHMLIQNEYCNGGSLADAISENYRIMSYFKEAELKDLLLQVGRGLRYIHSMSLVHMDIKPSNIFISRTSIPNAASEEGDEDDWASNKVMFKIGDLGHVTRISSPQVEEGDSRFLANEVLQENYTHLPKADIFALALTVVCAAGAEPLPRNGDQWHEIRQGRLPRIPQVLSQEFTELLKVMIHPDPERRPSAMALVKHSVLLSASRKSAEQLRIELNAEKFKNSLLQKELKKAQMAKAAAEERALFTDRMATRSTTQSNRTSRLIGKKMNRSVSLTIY
Text: Pharmaceutical Test 1 (Weel Kinase-Inhibitory Effect)
(1) Purification of Weel Kinase:
A cDNA of Weel kinase with […] (GST) fused at the amino terminal thereof was inserted into a baculovirus expression vector to construct a recombinant baculovirus, with which cells of an insect cell line Sf9 were infected for high expression therein. The infected cells were recovered and solubilized, and then the GST-tagged Weel kinase protein was adsorbed by a glutathione column, and eluted from the column with glutathione, and the active fraction was desalted in a desalting column to give a purified enzyme.
(2) Determination of Weel Kinase Activity:
In determination of the Weel kinase activity, a synthetic peptide, Poly(Lys,Tyr) Hydrobromide (Lys:Tyr (4:1)) bought from Sigma was used as the substrate.
The amount of the reaction mixture was 21.1 μL; and the composition of the reaction buffer was 50 mM Tris-HCl buffer (pH 7.4)/10 mM magnesium chloride/1 mM dithiothreitol. The purified Weel kinase, 2.5 μg of the substrate peptide, 10 μM of non-labeled adenosine triphosphate (ATP) and 1 μCi of [γ-^33P]-labeled ATP (2500 Ci/mmol or more) were added to it, and incubated at 30° C. for 30 minutes. Next, 10 μL of 350 mM phosphate buffer was added to the reaction mixture to stop the reaction. The substrate peptide was adsorbed by a P81 paper filter 96-well plate, then washed a few times with 130 mM phosphate buffer, and its radioactivity was counted with a liquid scintillation counter. The [γ-^33P]-labeled ATP was bought from Amersham Bioscience.
To add the test compound to the reaction system, the compound was diluted with dimethylsulfoxide (DMSO) to prepare a series of dilutions. 1.1 μL of each dilution was added to the reaction system. As a control, 1.1 μL of DMSO was added to the reaction system.

[1] = test system: Human colon cancer cells WiDr; test: Tumor growth-inhibitory effect, WiDr tumor implanted subcutaneously in nude rats; assay type: in vivo, F344/N Jcl-mu nude rats; conditions: gemcitabine 50 mg/kg intravenously alone
Experimental: Pharmaceutical Test 4 (Tumor Growth-Inhibitory Effect)
Human colon cancer cells WiDr (gotten from ATCC) were implanted into the subcutaneous area of the back of F344/N Jcl-mu nude rats. Eight days after the implantation, gemcitabine (50 mg/kg, Gemzar injection, Eli-Lilly) was intravenously administered to them; and after 24 hours, a test compound was dissolved in a solvent (5% glucose) and given to them through continuous intravenous injection for 8 hours. The tumor volume (0.5×(major diameter)×(minor diameter)^2) was determined on day 0, 3, 6, 10 and 13. Day 0 means the day on which gemcitabine was administered. The relative tumor volume is a relative value, as calculated on the basis of the tumor volume of 1 on day 0. The tumor growth percentage (% T/C) was obtained according to the following formula:
When the tumor volume change from day 0 in the group subjected to test compound administration is more than 0 (>0): % T/C=[(tumor volume change in the test compounds on day 3, 6, 10, 13)/(tumor volume change in the control on day 3, 6, 10, 13)]×100. When the tumor volume change from day 0 in the group subjected to test compound administration is less than 0 (<0): % T/C=[(tumor volume change in the test compounds on day 3, 6, 10, 13)/(tumor volume […])]×100.

IC50 (Weel kinase)	SMILES	further results
7.6 nM	C=CCn1c(=O)c2cnc(Nc3ccc(N4CCN(C)CC4)c(CO)c3)nc2n1-c1ccsc1 [Example 3, 2-allyl-6-{[3-(hydroxymethyl)-4-(4-methylpiperazin-1-yl)phenyl]amino}-1-(3-thienyl)-1,2-dihydro-3H-pyrazolo[3,4-d]pyrimidin-3-one]	
14 nM	C=CCn1c(=O)c2cnc(Nc3ccc(N4CCN(C)CC4)c(C)c3)nc2n1-c1cccc(OCCO)n1 [Example 98, 2-allyl-1-[6-(2-hydroxyethoxy)pyridin-2-yl]-6-{[3-methyl-4-(4-methylpiperazin-1-yl)phenyl]amino}-1,2-dihydro-3H-pyrazolo[3,4-d]pyrimidin-3-one]	
7 nM	C=CCn1c(=O)c2cnc(Nc3ccc(N4CCN(C)CC4)cc3)nc2n1-c1cccc(C(=O)N(C)C)c1 [Example 1, 3-(2-allyl-6-{[4-(4-methylpiperazin-1-yl)phenyl]amino}-3-oxo-1,2-dihydro-3H-pyrazolo[3,4-d]pyrimidin-1-yl)-N,N-dimethylbenzamide]	
12 nM	C=CCn1c(=O)c2cnc(Nc3ccc(N4CCN(C)CC4)c(C)c3)nc2n1-c1cccc(CN(C)C)n1 [Example 52, 2-allyl-1-[6-[(dimethylamino)methyl]pyridin-2-yl]-6-{[3-methyl-4-(4-methylpiperazin-1-yl)phenyl]amino}-1,2-dihydro-3H-pyrazolo[3,4-d]pyrimidin-3-one]	
17 nM	C=CCn1c(=O)c2cnc(Nc3ccc(N4CCN(C)CC4)cc3)nc2n1-c1cccc(N2CCN(C)C2=O)n1 [Example 148, 2-allyl-1-[6-(3-methyl-2-oxoimidazolidin-1-yl)pyridin-2-yl]-6-{[4-(4-methylpiperazin-1-yl)phenyl]amino}-1,2-dihydro-3H-pyrazolo[3,4-d]pyrimidin-3-one]	
20 nM	C=CCn1c(=O)c2cnc(Nc3ccc(N4CCN(C)CC4)c(CO)c3)nc2n1-c1ccccn1 [Example 29, 2-allyl-6-{[3-hydroxymethyl-4-(4-methylpiperazin-1-yl)phenyl]amino}-1-pyridin-2-yl-1,2-dihydro-3H-pyrazolo[3,4-d]pyrimidin-3-one]	
24 nM	CC(C)n1c(=O)c2cnc(Nc3ccc(C4CCN(C)CC4)cc3)nc2n1-c1cccc(C(C)(C)O)n1 [Example 147, 1-[6-(1-hydroxy-1-methylethyl)pyridin-2-yl]-2-isopropyl-6-{[4-(1-methylpiperidin-4-yl)phenyl]amino}-1,2-dihydro-3H-pyrazolo[3,4-d]pyrimidin-3-one]	
18 nM	C=CCn1c(=O)c2cnc(Nc3ccc(N4CCN(C)CC4)cc3)nc2n1-c1cccc(CN(C)C)c1 [Example 26, 2-allyl-1-[3-(dimethylaminomethyl)phenyl]-6-{[4-(4-methylpiperazin-1-yl)phenyl]amino}-1,2-dihydro-3H-pyrazolo[3,4-d]pyrimidin-3-one]	
6.3 nM	C#CCn1c(=O)c2cnc(Nc3ccc(N4CCN(C)CC4)cc3)nc2n1-c1cccc(C(C)(C)O)n1 [Example 113, 1-[6-(1-hydroxy-1-methylethyl)pyridin-2-yl]-6-{[4-(4-methylpiperazin-1-yl)phenyl]amino}-2-(2-propynyl)-1,2-dihydro-3H-pyrazolo[3,4-d]pyrimidin-3-one]	
24 nM	Cc1cc(Nc2ncc3c(=O)n(Cc4ccccc4)n(-c4ccccc4)c3n2)ccc1N1CCN(C)CC1 [Example 111, 2-benzyl-6-{[3-methyl-4-(4-methylpiperazin-1-yl)phenyl]amino}-1-phenyl-1,2-dihydro-3H-pyrazolo[3,4-d]pyrimidin-3-one]	
8.8 nM	C=CCn1c(=O)c2cnc(Nc3ccc(N4CCN(C)CC4)cc3)nc2n1-c1cccc(CN(C)S(C)(=O)=O)n1 [Example 99, N-{[6-(2-allyl-6-{[4-(4-methylpiperazin-1-yl)phenyl]amino}-3-oxo-1,2-dihydro-3H-pyrazolo[3,4-d]pyrimidin-1-yl)pyridin-2-yl]methyl}-N-methylmethanesulfonamide]	
	Nc1ccn([C@@H]2O[C@H](CO)[C@@H](O)C2(F)F)c(=O)n1 [Gemcitabine, gemcitabine, reference compound]	% T/C day 3 ([1]; day 3): 22%; % T/C day 6 ([1]; day 6): 31%; % T/C day 10 ([1]; day 10): 54%; % T/C day 13 ([1]; day 13): 65%
